Measured values published in article PMC7364574 (ACS Omega, 2020).

Legend:
A549 cells [1] = assay: Acridine orange; type: cell-based; details: A549, 0.50 μM, 8 h
A549 cells [2] = assay: Cell cycle distribution analysis by flow cytometry; type: cell-based; details: 24 h, control 56.06%
A549 cells [3] = assay: Apoptosis analysis by flow cytometry; type: cell-based; details: 24 h, control 5.16%
c-Met kinase = c-Met kinase (Homo sapiens, UniProt P08581); assay: c-Met tyrosine kinase mobility shift assay; type: biochemical; details: IC50 (μM) c-Met
Sequence of c-Met kinase (P08581 25-1390): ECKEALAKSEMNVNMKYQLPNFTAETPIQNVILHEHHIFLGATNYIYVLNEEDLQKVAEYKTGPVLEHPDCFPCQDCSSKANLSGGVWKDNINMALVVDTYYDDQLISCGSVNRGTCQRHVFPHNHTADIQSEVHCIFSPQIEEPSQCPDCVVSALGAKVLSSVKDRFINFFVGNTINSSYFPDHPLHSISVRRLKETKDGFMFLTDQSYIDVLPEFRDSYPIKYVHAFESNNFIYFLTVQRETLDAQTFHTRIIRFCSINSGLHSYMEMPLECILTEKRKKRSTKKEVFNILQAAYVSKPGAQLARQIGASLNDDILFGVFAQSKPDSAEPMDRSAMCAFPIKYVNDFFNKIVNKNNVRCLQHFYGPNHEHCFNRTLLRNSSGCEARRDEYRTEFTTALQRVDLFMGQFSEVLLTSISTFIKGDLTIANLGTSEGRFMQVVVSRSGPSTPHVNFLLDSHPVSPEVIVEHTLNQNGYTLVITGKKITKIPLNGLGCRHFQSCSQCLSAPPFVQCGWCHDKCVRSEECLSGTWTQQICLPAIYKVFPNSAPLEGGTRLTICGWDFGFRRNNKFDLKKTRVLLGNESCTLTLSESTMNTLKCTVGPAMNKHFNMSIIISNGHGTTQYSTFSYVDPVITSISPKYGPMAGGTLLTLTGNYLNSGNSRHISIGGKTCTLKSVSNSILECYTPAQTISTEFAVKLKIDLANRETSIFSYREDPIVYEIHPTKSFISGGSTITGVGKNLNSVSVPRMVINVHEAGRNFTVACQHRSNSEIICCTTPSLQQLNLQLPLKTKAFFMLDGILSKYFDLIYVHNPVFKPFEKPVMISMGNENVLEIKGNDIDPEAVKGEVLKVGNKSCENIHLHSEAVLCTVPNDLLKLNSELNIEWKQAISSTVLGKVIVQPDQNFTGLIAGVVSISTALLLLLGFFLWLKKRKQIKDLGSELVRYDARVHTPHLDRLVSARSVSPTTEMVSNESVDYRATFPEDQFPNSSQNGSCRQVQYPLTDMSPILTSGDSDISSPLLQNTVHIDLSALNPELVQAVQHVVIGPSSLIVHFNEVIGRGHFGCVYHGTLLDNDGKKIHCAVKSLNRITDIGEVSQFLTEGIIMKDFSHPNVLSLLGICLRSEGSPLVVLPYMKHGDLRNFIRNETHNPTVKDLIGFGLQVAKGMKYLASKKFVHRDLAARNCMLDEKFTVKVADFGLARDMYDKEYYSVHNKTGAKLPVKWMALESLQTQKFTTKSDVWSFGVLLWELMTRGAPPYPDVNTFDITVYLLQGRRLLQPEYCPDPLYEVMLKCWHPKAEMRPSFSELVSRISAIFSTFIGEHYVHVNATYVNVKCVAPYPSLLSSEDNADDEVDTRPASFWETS

Row | IC50 (c-Met kinase) [µM] | SMILES | induction of apoptosis, AO staining (A549 cells [1]) | G0/G1 phase population (A549 cells [2]; A549, 3.75 μM) [%] | G0/G1 phase population (A549 cells [2]; A549, 7.50 μM) [%] | G0/G1 phase population (A549 cells [2]; A549, 15.00 μM) [%] | total apoptosis rate (A549 cells [3]; A549, 3.75 μM) [%] | total apoptosis rate (A549 cells [3]; A549, 7.50 μM) [%] | total apoptosis rate (A549 cells [3]; A549, 15.00 μM) [%]
1 | 0.09 to 0.21 | Cc1cc(Oc2ccc(NC(=O)c3sc(-c4ccccn4)nc3C)cc2)c2nncn2n1 [12e, 4-Methyl-N-(4-((6-methyl-[1,2,4]triazolo[4,3-b]pyridazin-8-yl)oxy)phenyl)-2-(pyridin-2-yl)thiazole-5-carboxamide] | significant effect on inducing apoptosis | 60.25 | 66.32 | 76.84 | 13.73 | 24.87 | 35.87
2 | 0.09 to 0.21 | Cc1cc(Oc2ccc(NC(=O)c3cnn(-c4ccc(Cl)cc4)c3C(F)(F)F)cc2F)c2nncn2n1 [13b, 1-(4-Chlorophenyl)-N-(3-fluoro-4-((6-methyl-[1,2,4]triazolo[4,3-b]pyridazin-8-yl)oxy)phenyl)-5-(trifluoromethyl)-1H-pyrazole-4-carboxamide] |  |  |  |  |  |  | 
